In assay [1] the target is T1, COX II (Homo sapiens, UniProt P35354).
T1 sequence (P35354 18-604): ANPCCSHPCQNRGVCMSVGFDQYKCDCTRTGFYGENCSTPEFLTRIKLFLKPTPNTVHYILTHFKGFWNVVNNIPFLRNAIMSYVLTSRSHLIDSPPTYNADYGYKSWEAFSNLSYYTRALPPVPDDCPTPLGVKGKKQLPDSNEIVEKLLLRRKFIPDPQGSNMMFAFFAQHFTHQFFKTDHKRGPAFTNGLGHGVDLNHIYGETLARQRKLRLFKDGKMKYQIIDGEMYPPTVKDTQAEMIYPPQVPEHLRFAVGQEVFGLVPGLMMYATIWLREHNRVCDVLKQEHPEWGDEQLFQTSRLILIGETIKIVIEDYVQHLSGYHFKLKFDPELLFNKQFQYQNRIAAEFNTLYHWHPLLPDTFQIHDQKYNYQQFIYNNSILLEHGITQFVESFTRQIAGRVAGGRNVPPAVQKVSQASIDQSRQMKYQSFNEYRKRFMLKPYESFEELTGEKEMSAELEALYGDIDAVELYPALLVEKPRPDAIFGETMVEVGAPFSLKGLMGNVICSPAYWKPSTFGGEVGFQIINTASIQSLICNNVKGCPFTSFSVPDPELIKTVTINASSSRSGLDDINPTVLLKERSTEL
The experiment in a line: radiometric assay, COX II inhibition (human recombinant, baculovirus expressed, partially purified). The class given is biochemical. Further details: A 1.8 Kb DNA fragment containing the coding region of human COX II was generated by PCR; made in house; host or cells: Sf9 insect cells, baculovirus. The following applies: radiometric assay, human recombinant baculovirus expressed enzyme; read-out: COX II IC50 (Table 2). The method, then:
(§1) Human prostaglandin G/H synthase I and II ("COX I" and "COX II") were expressed in the baculovirus expression system and purified to high levels.
(§2) As described above, human recombinant COX I and COX II were cloned and expressed in a baculovirus system. Partially purified COX I and COX II enzymes were used for screening compounds for their ability to inhibit COX I and COX II activity, as described below.
(§3) Compound (16), in 2 μl DMSO, and control samples (carrier vehicles only) were mixed with COX I or COX II samples (e.g. fractions from the chromatography columns) in polypropylene tubes and preincubated with 2 mM phenol for 5 minutes and then with 1 μM hematin for an additional 5 minutes. The 150 μl reaction mixture consisted of 50 mM Tris --HCl, pH 7.9, 2 mM EDTA, 10% glycerol, 200 μM phenol, 1 μM hematin, 1-25 μl sample and 20 μM 1-[^14 C] arachidonate (80.000-100.000 cpm/tube). After 45 seconds at room temperature, the reaction was terminated by adding 200 μl of 2N HCl and 750 μl water. An aliquot (950 μl) of the reaction mixture was loaded onto a 1 ml C~ Sep-Pak (J. T. Baker, Phillipsburg, N.J.) which had been previously washed with 2-3 ml methanol and equilibrated with 5-6 ml distilled water. Oxygenated products were quantitatively eluted with 3 ml of acetonitrile, H2 O and acetic acid (50:50:0.1, v/v) and the radioactivity in the eluate determined in a scintillation counter.
(§4) Human recombinant 10 min incubation with Compound (16)
(§5) baculovirus 45 sec incubation with 20 μM AA
(§6) partially purified Separation of radioactive products

Assay [2] addresses COX I (Homo sapiens, UniProt P23219). Kind of assay: radiometric assay, COX I inhibition (human recombinant, baculovirus expressed, partially purified). The class given is biochemical. Further details: A 2 Kb fragment containing the coding region of COX I; made in house; host or cells: Sf9 insect cells, baculovirus (cDNA from Oxford Biomedical Research). The following applies: radiometric assay, human recombinant baculovirus expressed enzyme; read-out: COX I IC50 (Table 2). The method, then: as §1, §2, §3, §4, §5, §6

Some results are limits rather than exact numbers.

Sequence of COX I (P23219 24-599): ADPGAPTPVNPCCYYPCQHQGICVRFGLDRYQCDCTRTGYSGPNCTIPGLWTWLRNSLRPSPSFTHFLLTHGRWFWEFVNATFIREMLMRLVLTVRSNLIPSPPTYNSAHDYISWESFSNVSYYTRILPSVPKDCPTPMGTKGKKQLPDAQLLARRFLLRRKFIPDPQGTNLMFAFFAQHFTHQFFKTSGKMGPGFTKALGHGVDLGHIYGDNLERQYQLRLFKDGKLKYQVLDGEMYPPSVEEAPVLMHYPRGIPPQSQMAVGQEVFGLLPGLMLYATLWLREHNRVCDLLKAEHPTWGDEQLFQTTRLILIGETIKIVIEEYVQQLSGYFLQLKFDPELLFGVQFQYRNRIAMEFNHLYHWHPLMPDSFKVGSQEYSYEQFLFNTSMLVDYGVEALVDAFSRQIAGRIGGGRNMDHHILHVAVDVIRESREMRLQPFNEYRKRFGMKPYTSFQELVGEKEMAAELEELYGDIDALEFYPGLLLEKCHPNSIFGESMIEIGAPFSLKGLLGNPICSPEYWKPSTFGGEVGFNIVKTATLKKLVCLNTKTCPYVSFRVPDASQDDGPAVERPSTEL

As usually defined, the IC50 is the concentration that gives 50% inhibition. In the case of `CC(=O)n1nc(Cc2cc(C)c(C(=O)c3ccc(Cl)cc3)n2C)ccc1=O` [Compound 114, 2-acetyl-6-[5-(4-chloro-benzoyl)-1,4,-dimethyl-1H-pyrrol-2-ylmethyl]-2H-pyridazin-3-one], the figures for the IC50 in assay [1] and in assay [2] were 0.66 µM and 82 µM, respectively.

With `COC(=O)Cn1nc(Cc2cc(C)c(C(=O)c3ccc(Cl)cc3)n2C)ccc1=O` [Compound 116, {3-[5-(4-chloro-benzoyl)-1,4,-dimethyl-1H-pyrrol-2-ylmethyl]-6-oxo-6H-pyridazin-1-yl}-acetic acid methyl ester], the IC50 amounted to 0.18 µM in assay [1] and 0.92 µM in assay [2].

Turning to `Cc1cc(Cc2ccc(=O)n(CCO)n2)n(C)c1C(=O)c1ccc(Cl)cc1` [Compound 118, 6-[5-(4-chloro-benzoyl)-1,4,-dimethyl-1H-pyrrol-2-ylmethyl]-2-(2-hydroxy-ethyl)-2H-pyridazin-3-one], the IC50 in assay [1] was determined as 0.8 µM; in assay [2] it was 76 µM.

For the molecule `Cc1cc(Cc2ccc(=O)n(CC(N)=O)n2)n(C)c1C(=O)c1ccc(Cl)cc1` [Compound 120, 2-{3-[5-(4-chloro-benzoyl)-1,4,-dimethyl-1H-pyrrol-2-ylmethyl]-6-oxo-6H-pyridazin-1-yl}-acetamide], the values for the IC50 in assay [1] and in assay [2] were 0.8 µM and 8.9 µM, respectively.

In the case of `Cc1cc(Cc2ccc(=O)n(Cc3ccccc3)n2)n(C)c1C(=O)c1ccc(Cl)cc1` [Compound 121, 2-benzyl-6-[5-(4-chloro-benzoyl)-1,4,-dimethyl-1H-pyrrol-2-ylmethyl]-2H-pyridazin-3-one], the values for the IC50 in assay [1] and in assay [2] were 0.23 µM and 6.3 µM, respectively.

Consider `Cc1cc(Cc2ccc(=O)n(CC#N)n2)n(C)c1C(=O)c1ccc(Cl)cc1` [Compound 122, 6-[5-(4-chloro-benzoyl)-1,4,-dimethyl-1H-pyrrol-2-ylmethyl]-2-(cyano-methyl)-2H-pyridazin-3-one], for which the IC50 in assay [1] was 0.063 µM; in assay [2] it was 0.074 µM.

For `Cc1cc(Cc2ccc(=O)n(CCF)n2)n(C)c1C(=O)c1ccc(Cl)cc1` [Compound 123, 6-[5-(4-chloro-benzoyl)-1,4-dimethyl-1H-pyrrol-2-ylmethyl]-2-(2-fluoroethyl)-2H-pyridazin-3-one], the IC50 in assay [1] is less than 0.03 µM; in assay [2], 3.5 µM.

Consider `COCCn1nc(Cc2cc(C)c(C(=O)c3ccc(Cl)cc3)n2C)ccc1=O` [Compound 124, 6-[5-(4-chloro-benzoyl)-1,4,-dimethyl-1H-pyrrol-2-ylmethyl]-2-(2-methoxy-ethyl)-2H-pyridazin-3-one], for which the IC50 in assay [1] worked out at 0.54 µM; in assay [2], 94 µM.

Consider `CNC(=O)Cn1nc(Cc2cc(C)c(C(=O)c3ccc(Cl)cc3)n2C)ccc1=O` [Compound 125, 2-{3-[5-(4-chloro-benzoyl)-1,4,-dimethyl-1H-pyrrol-2-ylmethyl]-6-oxo-6H-pyridazin-1-yl}--N-methyl acetamide], for which the values for the IC50 in assay [1] and in assay [2] were 1.6 µM and less than 10 µM, respectively.

In the case of `C#CCn1nc(Cc2cc(C)c(C(=O)c3ccc(Cl)cc3)n2C)ccc1=O` [Compound 126, 6-[5-(4-chloro-benzoyl)-1,4-dimethyl-1H-pyrrol-2-ylmethyl]-2-prop-2-ynyl-2H-pyridazin-3-one], the IC50 was 0.97 µM in assay [1] and 61.4 µM in assay [2].

In the case of `C=CCn1nc(Cc2cc(C)c(C(=O)c3ccc(Cl)cc3)n2C)ccc1=O` [Compound 127, 2-allyl-6-[5-(4-chloro-benzoyl)-1,4-dimethyl-1H-pyrrol-2-ylmethyl]-2H-pyridazin-3one], the IC50 in assay [1] was determined as 0.67 µM; in assay [2], 57 µM.

With `Cc1cc(Cc2ccc(=O)n(Cc3ccc(F)cc3)n2)n(C)c1C(=O)c1ccc(Cl)cc1` [Compound 129, 6-[5-(4-chloro-benzoyl)-1,4,-dimethyl-1H-pyrrol-2-ylmethyl]-2-(4-fluorobenzyl)-2H-pyridazin-3-one], the IC50 was 0.067 µM in assay [1] and 3.4 µM in assay [2].

On to `Cc1ccc(C(=O)c2cc(Br)c(Cc3ccc(=O)[nH]n3)n2C)cc1` [Compound 130, 6-[3-bromo-1-methyl-5-(4-methyl-benzoyl)-1H-pyrrol-2-ylmethyl]-2H-pyridazin-3-one], for which the IC50 in assay [1] was 0.58 µM; in assay [2] it was greater than 100 µM.

`Cc1cc(Cc2ccc(=O)n(CCCl)n2)n(C)c1C(=O)c1ccc(Cl)cc1` [Compound 131, 6-[5-(4-chloro-benzoyl)-1,4-dimethyl-1H-pyrrol-2-ylmethyl]-2-(2-chloroethyl)-2H-pyridazin-3-one]: the figures for the IC50 in assay [1] and in assay [2] were 0.12 µM and 5.3 µM, respectively.

For the molecule `Cc1cc(Cc2ccc(=O)n(Cc3ccc(Cl)cc3)n2)n(C)c1C(=O)c1ccc(Cl)cc1` [Compound 133, 6-[5-(4-chloro-benzoyl)-1,4,-dimethyl-1H-pyrrol-2-ylmethyl]-2-(4-chlorobenzyl)-2H-pyridazin-3-one], the results for the IC50 in assay [1] and in assay [2] were 0.07 µM and 3.7 µM, respectively.

As for `CC(=O)OCCn1nc(Cc2cc(C)c(C(=O)c3ccc(Cl)cc3)n2C)ccc1=O` [Compound 135, acetic acid 2-{3-[5-(4-chloro-benzoyl)-1,4,-dimethyl-1H-pyrrol-2-ylmethyl]-6-oxo-6H-pyridazin-1-yl}ethyl ester], the IC50 worked out at 0.35 µM in assay [1] and 52 µM in assay [2].

Regarding `Cc1cc(Cc2ccc(=O)n(CCNS(C)(=O)=O)n2)n(C)c1C(=O)c1ccc(Cl)cc1` [Compound 136, N-(2-{3-[5-(4-chloro-benzoyl)-1,4,-dimethyl-1H-pyrrol-2-ylmethyl]-6-oxo-6H-pyridazin-1-yl}-ethyl)-methanesulfonamide], the IC50 in assay [1] is 3.06 µM; in assay [2] it was 829 µM.

As for `Cc1cc(Cc2ccc(=O)n(CCCO)n2)n(C)c1C(=O)c1ccc(Cl)cc1` [Compound 140, 6-[5-(4-chloro-benzoyl)-1,4,-dimethyl-1H-pyrrol-2-ylmethyl]-2-(3-hydroxy-1-propyl)-2H-pyridazin-3-one], the IC50 in assay [1] worked out at 0.53 µM; in assay [2], 48 µM.

With `Cc1cc(Cc2cc(C)c(=O)[nH]n2)n(C)c1C(=O)c1ccc(Cl)cc1` [Compound 141, 6-[5-(4-chloro-benzoyl)-1,4-dimethyl-1H-pyrrol-2-ylmethyl]-4-methyl-2H-pyridazin-3-one], the IC50 in assay [1] was 0.125 µM; in assay [2], 4.9 µM.

Take `Cc1cc(Cc2ccc(=O)[nH]n2)n(C)c1C(=O)c1ccc(F)cc1` [Compound 142, 6-[1,4-dimethyl-5-(4-fluoro-benzoyl)-1H-pyrrol-2-ylmethyl]-2H-pyridazin-3-one]: the IC50 in assay [1] was 4.16 µM; in assay [2], 67 µM.

Take `Cc1cc(Cc2ccc(=O)[nH]n2)n(C)c1C(=O)c1cccs1` [Compound 144, 6-[1,4-dimethyl-5-(thienyl-2-carbonyl)-1H-pyrrol-2-ylmethyl]-2H-pyridazin-3-one]: the IC50 turned out to be 0.59 µM in assay [1] and 1 µM in assay [2].

As to `Cc1cc(Cc2ccc(=O)n(CCC#N)n2)n(C)c1C(=O)c1ccc(Cl)cc1` [Compound 145, 6-[5-(4-chloro-benzoyl)-1,4,-dimethyl-1H-pyrrol-2-ylmethyl]-2-(2-cyano-ethyl)-2H-pyridazin-3-one], the IC50 in assay [1] came out at 0.91 µM; in assay [2], 85 µM.

Consider `Cc1cccc(C)c1Cn1nc(Cc2cc(C)c(C(=O)c3ccc(Cl)cc3)n2C)ccc1=O` [Compound 151, 6-[5-(4-chloro-benzoyl)-1,4,-dimethyl-1H-pyrrol-2-ylmethyl]-2-(2,6-dimethylbenzyl)-2H-pyridazin-3-one], for which the results for the IC50 in assay [1] and in assay [2] were less than 0.1 µM and 3.8 µM, respectively.

Turning to `Cc1cc(Cc2ccc(=O)n(Cc3c(Cl)cccc3Cl)n2)n(C)c1C(=O)c1ccc(Cl)cc1` [Compound 152, 6-[5-(4-chloro-benzoyl)-1,4,-dimethyl-1H-pyrrol-2-ylmethyl]-2-(2,6-dichlorobenzyl)-2H-pyridazin-3-one], the figures for the IC50 in assay [1] and in assay [2] were 0.14 µM and 10 µM, respectively.

For the origin of these results see US5622948A, “Pyrrole pyridazine and pyridazinone anti-inflammatory agents” (Syntex (U.S.A.) Inc., priority 1994, dated 1997).
